According to patent US7169818B2, “Lysophosphatidic acid receptor agonists and antagonists” (University of Virginia Patent Foundation, priority 2000, dated 2007):
“Also recorded” adds a separate entry of the source.

Tests used:
[1] = system: human platelets; settings: previously reported; cited from earlier work
[2] = biological target: mouse LPA1 (Mus musculus, UniProt P61793); experiment: GTP[γ35S] binding, LPA1-transfected HEK293T (or RH7777) cell membranes; format: biochemical; design: expressed in transfected cells; host or cells: HEK293T (transient); for part of the results RH7777 membranes
Method: (§1) The appropriate receptor plasmid DNA (encoding mouse LPA1, human LPA2 or human LPA3) was mixed with equal amounts of expression plasmids (pcDNA3) encoding a mutated (C351F) rat Gi2a, cow β1, and γ2 proteins and these DNAs were used to transfect monolayers of HEK293T cells (where ‘T’ indicates expression of the SV-40 virus large T antigen) using the calcium phosphate precipitate method. After about 60 hours, cells were harvested, membranes were prepared, aliquoted and stored at −70° C. until use.
(§2) The GTP[35 γS] assay was performed as described by us previously. Membranes containing 5 ug of protein were incubated in 0.1 ml GTP-binding buffer (in mM: HEPES 50, NaCl 100, MgCl2 10, pH7.5) containing […], […], 0.1 nM GTP[35 γS] (1200 Ci/mmol), and indicated lipid(s) for 30 minutes at 30° C. Samples were analyzed for membrane-bound radionuclide using a Brandel Cell Harvester (Gaithersburg, Md.).
(§3) The X-intercept of the linear transformation is equal to the inverse log of the KI.
(§4) Membranes prepared from these cells are used to measure GTPγ[^35S] binding as a function of test compound concentration. The resulting dose-response curves provide relative potency (EC50) and efficacy (Emax) for the test compounds.

[3] = biological target: human LPA2 (Homo sapiens, UniProt Q9HBW0); experiment: GTP[γ35S] binding, LPA2-transfected HEK293T cell membranes; format: biochemical; design: expressed in transfected cells; host or cells: HEK293T (transient); settings: for EC50: agonist activity, read-out: LP A2 EC50
Method: as §1, §2, §4

[4] = biological target: T1, human LPA3 (Homo sapiens, UniProt Q9UBY5); experiment: GTP[γ35S] binding, LPA3-transfected HEK293T cell membranes; format: biochemical; design: expressed in transfected cells; host or cells: HEK293T (transient); settings: for EC50: agonist activity, read-out: LP A3 EC50; for LP A3 Emax: efficacy compared to LPA (LPA = 100)
T1 sequence (Q9UBY5 1-353): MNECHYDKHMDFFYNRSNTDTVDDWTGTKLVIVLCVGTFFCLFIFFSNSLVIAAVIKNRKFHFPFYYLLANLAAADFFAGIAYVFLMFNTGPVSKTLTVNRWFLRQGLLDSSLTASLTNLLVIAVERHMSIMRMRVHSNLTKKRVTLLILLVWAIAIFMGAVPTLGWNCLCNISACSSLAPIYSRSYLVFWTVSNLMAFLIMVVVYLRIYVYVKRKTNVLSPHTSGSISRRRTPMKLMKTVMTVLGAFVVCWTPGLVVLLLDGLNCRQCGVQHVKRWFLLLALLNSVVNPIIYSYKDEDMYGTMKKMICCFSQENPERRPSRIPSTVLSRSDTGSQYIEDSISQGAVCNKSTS
Method: as §1, §2, §3, §4

[5] = biological target: T2, LPP3 (PAP2b) (Homo sapiens, UniProt O14495); experiment: LPP inhibition, competition with [32P]LPA; format: biochemical; settings: for rank order of inhibition of the three LPPs: LPP1 (PAP2a), LPP2 (PAP2c), LPP3 (PAP2b)
T2 sequence (O14495 1-311): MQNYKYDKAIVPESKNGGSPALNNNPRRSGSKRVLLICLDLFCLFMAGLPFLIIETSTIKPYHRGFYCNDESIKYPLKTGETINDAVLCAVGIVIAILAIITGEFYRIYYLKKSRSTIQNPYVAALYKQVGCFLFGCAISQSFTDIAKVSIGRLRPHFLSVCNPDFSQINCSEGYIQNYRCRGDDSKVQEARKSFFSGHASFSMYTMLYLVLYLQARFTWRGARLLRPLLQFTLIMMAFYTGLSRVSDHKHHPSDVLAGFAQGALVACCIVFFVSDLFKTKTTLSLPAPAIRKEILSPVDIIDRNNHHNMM
Method: NOHPP was also tested for activity at the three cloned LPPs. Although the phosphonate head group eliminates the possibility of NOHPP acting as a substrate, it is possible that the compound could be a competitive inhibitor.

[6] = system: Xenopus laevis ooctyes; settings: previously reported; cited from earlier work
[7] = efficacy compared to LPA (LPA = 100)

Sequence of mouse LPA1 (P61793 whole entry): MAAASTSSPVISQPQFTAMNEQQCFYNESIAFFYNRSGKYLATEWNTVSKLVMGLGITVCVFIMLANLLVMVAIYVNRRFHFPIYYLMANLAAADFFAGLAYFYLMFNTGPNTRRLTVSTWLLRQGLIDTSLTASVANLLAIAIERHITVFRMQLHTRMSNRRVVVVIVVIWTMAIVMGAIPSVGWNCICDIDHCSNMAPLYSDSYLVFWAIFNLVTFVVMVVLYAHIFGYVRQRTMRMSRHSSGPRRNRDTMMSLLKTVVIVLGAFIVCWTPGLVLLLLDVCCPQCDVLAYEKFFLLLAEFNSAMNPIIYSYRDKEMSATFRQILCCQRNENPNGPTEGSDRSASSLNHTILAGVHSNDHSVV
Sequence of human LPA2 (Q9HBW0 whole entry): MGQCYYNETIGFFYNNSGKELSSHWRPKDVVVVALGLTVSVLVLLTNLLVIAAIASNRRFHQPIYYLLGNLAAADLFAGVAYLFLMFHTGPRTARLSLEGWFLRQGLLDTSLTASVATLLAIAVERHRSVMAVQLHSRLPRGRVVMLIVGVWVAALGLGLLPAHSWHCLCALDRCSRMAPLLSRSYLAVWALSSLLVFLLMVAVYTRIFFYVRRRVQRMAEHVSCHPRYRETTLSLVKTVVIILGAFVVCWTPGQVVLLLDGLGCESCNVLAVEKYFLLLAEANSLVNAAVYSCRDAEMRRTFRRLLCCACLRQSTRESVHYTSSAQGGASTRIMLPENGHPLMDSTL

CCCCCCCCCCCCCCCC(=O)N[C@@H](CCCC)COP(=O)(O)O [PNPA, N-palmitoyl-norleucinol-1-phosphate]
platelet aggregation (literature) [1]: aggregates human platelets without regard to stereoselectivity

CCCCCCCC/C=C\CCCCCCCC(=O)N[C@H](CN)COP(=O)(O)O [VPC12178]
agonist potency relative to LPA at LPA1 ([2]; GTP[γ35S] binding): more potent than 1-oleoyl LPA

CCCCCCCC/C=C\CCCCCCCC(=O)N[C@@H](CC)COP(=O)(O)O [VPC12115]
EC50 ([3]; GTP[γ35S] binding): 4.28 µM
LP A2 Emax [3, 7]: 85.6
EC50 ([4]; GTP[γ35S] binding): 4.98 µM
LP A3 Emax [4]: 89.3
EC50 ([2]; agonist activity, GTP[γ35S] binding, read-out: LP A1 EC50): 1.58 µM
LP A1 Emax [2, 7]: 62.3

CCCCCCCC/C=C\CCCCCCCC(=O)N[C@H](C)COP(=O)(O)O [VPC12086]
agonist potency relative to LPA at LPA1 ([2]; GTP[γ35S] binding): more potent than 1-oleoyl LPA; also recorded: more potent and efficacious than LPA

CCCCCCCC/C=C\CCCCCCCC(=O)NCCC(O)P(=O)(O)O (racemic) [NOHPP, (9Z)-N-(rac-3-hydroxy-3-phosphonopropyl)octadec-9-enamide]
agonist activity / efficacy relative to LPA at LPA2 ([3]; GTP[γ35S] binding): as efficacious as; also recorded: fullly efficacious
agonist potency relative to LPA at LPA2 ([3]; GTP[γ35S] binding): somewhat less potent than; also recorded: about one log order less potent
agonist activity / efficacy relative to LPA at LPA3 ([4]; GTP[γ35S] binding): far less efficacious; also recorded: little activity
agonist potency relative to LPA at LPA3 ([4]; GTP[γ35S] binding): distinctly less potent; also recorded: greater than two log orders less potent
agonist activity / efficacy relative to LPA at LPA1 ([2]; GTP[γ35S] binding): as efficacious as; also recorded: fullly efficacious
agonist potency relative to LPA at LPA1 ([2]; GTP[γ35S] binding): somewhat less potent than; also recorded: about one log order less potent
rank order of inhibition of the three LPPs [5]: LPP3>LPP1>>LPP2
rank order of inhibition of the three LPPs ([5]; listed as VPC12031): markedly better at the PAP2b (LPP3) than PAP2a (LPP1) which in turn is better than PAP2c (LPP2)
inhibition of LPP3 ([5]; NOHPP in competition with 50 nM [32P]LPA): inhibited

CCCCCCCC/C=C\CCCCCCCC(=O)N[C@H](CO)COP(=O)(O)O [VPC31143]
agonist potency relative to LPA at LPA1 ([2]; GTP[γ35S] binding): more potent than 1-oleoyl LPA

CCCCCCCC/C=C\CCCCCCCC(=O)N[C@@H](COP(=O)(O)O)Cc1ccc(OCc2ccc(CCCCC)cc2)cc1 [VPC31162]
antagonist activity at LPA2 ([3]; block of LPA-induced GTP[γ35S] binding): antagonist activity
agonist activity / efficacy relative to LPA at LPA3 ([4]; GTP[γ35S] binding): agonist
agonist activity / efficacy relative to LPA at LPA1 ([2]; GTP[γ35S] binding): agonist

CCCCCCCCCCCCCCCC(=O)N[C@@H](COP(=O)(O)O)C(=O)O [NASPA, N-palmitoyl serine phosphate]
oocyte depolarization (literature) [6]: antagonize
platelet aggregation (literature) [1]: antagonize

1-acyl, 2-hydroxyl-sn-glycerol-3-phosphate [LPA, reference compound]
EC50 ([3]; GTP[γ35S] binding): 0.0068 µM
EC50 ([4]; GTP[γ35S] binding): 0.263 µM
LP A3 Emax [4]: 100
